Data reported in US7259142B2, “Redox-stable, non-phosphorylated cyclic peptide inhibitors of SH2 domain binding to target protein, conjugates thereof, compositions and methods of synthesis and use” (The United States of America, represented by the Secretary, …, priority 1999, dated 2007).
Read-outs that look alike come from different tables or passages of the source. Where a SMILES comes first, the peptide text is derived from it. Bridges are numbered along the chain shown (N, C = ends). Where no end group is shown, it is not given here. [ ]: non-standard residue; d: D form. pY = N[C@@H](Cc1ccc(OP(=O)(O)O)cc1)C(=O)O; Gla = N[C@@H](CC(C(=O)O)C(=O)O)C(=O)O

Tests used:
SH2 domain of Grb2 = SH2 domain of Grb2 (Homo sapiens, UniProt P62993); details: background, previously reported values; read-out: IC50 (receptor affinity); cited from earlier work
SH2 domain of Grb2, sequence (P62993 60-152 limits assumed): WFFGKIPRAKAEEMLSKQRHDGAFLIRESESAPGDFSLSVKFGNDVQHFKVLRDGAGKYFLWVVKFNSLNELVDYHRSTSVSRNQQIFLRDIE

[1] = target: T1, p185^erbB-2/Grb2 association in MDA-MB-453 cells (Homo sapiens, UniProt P62993); assay: Inhibition of intracellular p185erbB-2/Grb2 association in whole MDA-MB-453 cells; format: cell-based; details: for concentration of effective inhibition of p185erbB-2/Grb2 association in cells: whole MDA-MB-453 cells treated 3 hrs in serum-free IMEM, inhibitor 0.1-50 μM
T1 construct: endogenous in cells; host or cells: MDA-MB-453 breast cancer cells
T1 sequence (P62993 whole entry): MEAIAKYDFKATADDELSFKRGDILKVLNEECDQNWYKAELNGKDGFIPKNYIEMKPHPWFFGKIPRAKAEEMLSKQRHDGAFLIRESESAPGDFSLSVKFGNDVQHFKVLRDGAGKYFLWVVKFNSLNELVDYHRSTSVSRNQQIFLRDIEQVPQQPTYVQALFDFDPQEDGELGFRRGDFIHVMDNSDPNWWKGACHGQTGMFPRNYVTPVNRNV
Protocol: The compound of Example 1, and the conjugate of Example 12, were tested in MDA-MB-453 cells (breast cancer cells that overexpress p185^erbB-2 receptor) at inhibitor concentrations of 0.1, 0.4, 2, 10 and 50 μM. In the control experiment, no inhibitor was used. The cells were treated for 3 hrs in serum-free IMEM medium. The cells were washed twice with ice-cold PBS to remove the residual inhibitory compound that was not internalized.
(§1) Cell lysates were prepared using 1% Triton X-100 in PBS containing 0.2 mM NaVO4. Grb2 and associated Grb2-binding proteins were immunoprecipitated from each lysate (500 μg) with anti-Grb2 antibodies and collected using protein A Sepharose using methods previously described. Immunoprecipitated proteins were separated by SDS-PAGE on 8-16% gradient gels (Novex). pTyr-containing proteins were detected by Western blotting using anti-phosphotyrosine antibodies (Upstate Biotechnology Inc.). Previous experiments have shown that a major tyrosine phosphorylated protein in MDA-MB-453 cells is p185^erbB-2, which is overexpressed as a consequence of gene amplification.
In these whole cell assays the agents were applied to the cell culture media of MDA-MB-453 cells. These conditions required that compounds transit through the cell membrane.

[2] = target: recombinant GST-Grb2 SH2 protein (Homo sapiens, UniProt P62993); assay: Biacore Surface Plasmon Resonance competitive binding assay against immobilized SHC(pTyr-317)-9-mer phosphopeptide; details: Biacore SPR, GST-Grb2-SH2 150-250 nM, PBS pH 7.4; mean of at least two independent experiments; read-out: IC50 (concentration at which half-maximal competition was observed)
recombinant GST-Grb2 SH2 protein, sequence (P62993 60-152 limits assumed): as the sequence (P62993 60-152 limits assumed) above
Protocol: The competitive binding affinity of the present inventive compounds was assessed using Biacore Surface Plasmon Resonance (SPR) methods utilizing a Biacore 2000 instrument. The concentrations at which half-maximal competition was observed (IC50) were determined by mixing the inhibitor with recombinant GST-Grb2 SH2 protein and measuring the amount of competitive binding at equilibrium to an immobilized (via biotin conjugation to streptavidin coated surface of the Biacore sensor chip SA; 2 nM concentration) SHC(pTyr-317)-9-mer phosphopeptide in a manner similar to that reported previously (Oligino et al. (1997), supra). Specifically, competitive binding assays were carried out at 5 μl/min flow rate, with GST-Grb2-SH2 (150-250 nM) and a cyclic peptide inhibitor (10 nM-2 mM) in phosphate-buffered saline (PBS), pH 7.4, containing 0.01% P-20 surfactant (Biacore, Inc., Piscataway, N.J.) for a total of 10 min. The change in response units (RU) at equilibrium was measured from the absorption profiles and the percent of control (no added peptide) was calculated. […] The results represent the mean value of at least two independent experiments.

[3] = target: T2, p185^erbB-2 receptor association with the Grb2 adapter protein (MDA-MB-453 cell lysates) (Homo sapiens, UniProt P62993); assay: Inhibition of p185erbB-2 interaction with Grb2 in cell homogenates (anti-Grb2 immunoprecipitation, anti-pTyr Western blot); format: biochemical
T2 construct: endogenous in cells; host or cells: MDA-MB-453 breast cancer cells
T2 sequence (P62993 whole entry): as the sequence (P62993 whole entry) above
Protocol: as §1, with “Cell lysates were prepared from the serum-treated erbB-2-overexpressing breast cancer cell line MDA-MB-453 using 1% Triton X-100 in PBS containing 0.2 mM NaVO4. Lysates were incubated with the present inventive cyclic peptide inhibitors specified in Example 1 and Example 12, at concentrations of 0.1, 0.4, 2, 10 and 50 μM. No inhibitor was used as a control. Cell” for “Cell”, “amplification. […] A dose-dependent inhibition of the p185^erbB-2 receptor association with the Grb2 adapter protein was observed.” for “amplification.”

Molecule | IC50 (SH2 domain of Grb2) [µM] | concentration of effective inhibition of p185erbB-2/Grb2 association in cells [1] [µM] | IC50 [2] [µM] | IC50 ([3]; MDA-MB-453 cell lysates, inhibitor 0.1-50 μM, read-out: half-maximal inhibition of p185erbB-2/Grb2 protein association) [µM] | reduction in the associated p185erbB-2 bound to Grb2 in cells ([1]; whole MDA-MB-453 cells pre-treated with increasing amounts) | IC50 [3] [µM]
SHC(pY^317)-9-mer: segment of the naturally phosphorylated ligand (DDPS[pY]VNVQ) | 1 |  |  |  |  | 
CSCC[C@@H]1NC(=O)CNC(=O)[C@H](C(C)C)NC(=O)[C@H](CC(N)=O)NC(=O)[C@H](CCC(=O)O)NC(=O)[C@H](Cc2ccc(O)cc2)NC(=O)[C@H](CC(C)C)NC(=O)[C@H](CC(C(=O)O)C(=O)O)NC(=O)CSC[C@@H](C(N)=O)NC(=O)[C@H](Cc2ccc(O)cc2)NC1=O [Example 1, cyclo(CH2CO-Gla^1-Leu^2-Tyr^3-Glu^4-Asn^5-Val^6-Gly^7-Met^8-Tyr^9-Cys)-amide] ({CH2CO}-[Gla]LYENVGMYC-NH2; thioether N-10) |  | 50 | 0.64 ± 0.1 | 2 |  | 
CSCC[C@@H]1NC(=O)CNC(=O)[C@H](C(C)C)NC(=O)[C@H](CC(N)=O)NC(=O)[C@H](CCC(=O)O)NC(=O)[C@H](Cc2ccc(O)cc2)NC(=O)[C@H](CC(C)C)NC(=O)[C@H](CC(C(=O)O)C(=O)O)NC(=O)CSC[C@@H](C(=O)N[C@@H](C)C(=O)N[C@@H](C)C(=O)N[C@H](C(=O)N[C@@H](C)C(=O)N[C@@H](CC(C)C)C(=O)N[C@@H](CC(C)C)C(=O)N2CCC[C@H]2C(=O)N[C@@H](C)C(=O)N[C@H](C(=O)N[C@@H](CC(C)C)C(=O)N[C@@H](CC(C)C)C(=O)N[C@@H](C)C(=O)N[C@@H](CC(C)C)C(=O)N[C@@H](CC(C)C)C(=O)N[C@@H](C)C(=O)N2CCC[C@H]2C(N)=O)C(C)C)C(C)C)NC(=O)[C@H](Cc2ccc(O)cc2)NC1=O [Example 12, cyclo(CH2CO-Gla^1-Leu^2-Tyr^3-Glu^4-Asn^5-Val^6-Gly^7-Met^8-Tyr^9-Cys)-NH-Ala-Ala-Val-Ala-Leu-Leu-Pro-Ala-Val-Leu-Leu-Ala-Leu-Leu-Ala-Pro] ({CH2CO}-[Gla]LYENVGMYCAAVALLPAVLLALLAP-NH2; thioether N-10) |  | 2 |  |  | clear dose-dependent reduction | 2
